Columns and labels:
[1] = plasma; cited from earlier work
[2] = parameters: method as in PMID 28540640; settings: plasma; reported PK/PD studies; cited from earlier work
[3] = LC-MS/MS quantitation of drugs in single-point patient plasma samples (therapeutic drug monitoring); assay type: in vivo, human
Description: Samples from ten women (ages 35 to 78, median 50.5 years) receiving regular treatment with a combination of a CDK4/6 inhibitor (PAL, RIB or ABE) and endocrine therapy (ANA, LET, FUL or exemestane, EXE) were obtained and analyzed using this LC-MS method. The samples were mostly taken in the elimination phase, during the patients’ regular visit to the hospital before the next dose administration, except in the case of patient 4 (sampling 1 h after dose administration). The aromatase inhibitors and ABE are continuously administered as single daily doses, FUL is a once-monthly intramuscular injection, and the dosing regimen of PAL and RIB involves a week off treatment every 21 days to minimize treatment-induced neutropenia.
The samples were analyzed against freshly prepared calibration curves. The results are listed in Table 7, while the accompanying chromatograms and mass spectra are included in the Supplementary Materials, Section 1, Figures S1–S29.
Healthy and patient blood samples were collected and pre-treated at the University Hospital Centre Zagreb, with signed informed consent. Patients receiving a combination of a CDK4/6 inhibitor and endocrine therapy as regular treatment for at least 4 months were enrolled.
Whole blood was collected in containers with K2-EDTA anticoagulant and centrifuged for 10 min at 1500 g; the supernatant was then withdrawn and stored at −18 °C (blank plasma) or −80 °C (patients’ plasma). Hemolyzed plasma was obtained by briefly freezing a whole blood sample at −18 °C before continuing with the procedure.
(§1) Calibration and QC samples were prepared by diluting 5 µL of the appropriate working solutions of the analytes with 45 µL of blank plasma in 1.5 mL polypropylene centrifuge tubes. In case of patient sample analysis, an aliquot of 50 µL of patient plasma was used. Proteins were precipitated by adding 200 µL of ACN, after which the samples were vortex-mixed for 10 s and centrifuged at 2000 g for 5 min. The resulting supernatant was collected and 200 µL was evaporated to dryness in a vacuum evaporator at room temperature. The dry residue was dissolved in 40 µL of 65% methanol, while 5 µL was injected into the chromatographic system.

[4] = Stability of the analytes in plasma (bench top, autosampler, freeze-thaw, long-term); assay type: physicochemical, human; settings: for Stability Bias (%) 1 FT Cycle (30 min, −18–25 °C) / Stability Bias (%) 2 FT Cycles (30 min, −18–25 °C) / Stability Bias (%) 3 FT Cycles (30 min, −18–25 °C) / Stability Bias (%) Long-Term (2 Weeks, −18 °C): plasma; for Stability Bias (%) 1 FT Cycle (30 min, −18–25 °C) / Stability Bias (%) 2 FT Cycles (30 min, −18–25 °C) / Stability Bias (%) 3 FT Cycles (30 min, −18–25 °C) / Stability Bias (%) Long-Term (2 Weeks, −18 °C) / Stability Bias (%) Autosampler (10 h, 10 °C): N = 3; for Stability Bias (%) Autosampler (10 h, 10 °C): processed plasma sample; for Stability Bias (%) Bench Top (2 h, 25 °C): unprocessed plasma, N = 3, vs fresh QC
Description: Stability of the stock and working solutions was determined in the preliminary studies. […] Patient plasma samples were stored long-term at −80 °C. Since adequate stability of plasma samples was proven at −18 °C, it was deemed acceptable at lower temperatures as well. Lower- and higher-concentration QC samples were prepared in triplicate for each condition and time point and were analyzed against QC samples freshly prepared in triplicate.

[5] = Clinical pharmacokinetic evaluation of RIB in one patient, first day of a treatment cycle, non-compartmental analysis; assay type: in vivo, human; settings: 600 mg oral dose
Description: Finally, we applied our fully validated method to evaluate the pharmacokinetic disposition of RIB in a patient during the first day of a treatment cycle. The plasma samples were prepared in the same manner as the single-point study samples and quantitated using a freshly prepared calibration curve. No additional dilution or preconcentration was necessary, as all the determined concentrations fell within the validated range. The corresponding data are available in Table S1 of the Supplementary Materials, Section 2 (Results of the pharmacokinetic study).
Pharmacokinetic data were analyzed with the PK solver Excel extension, using the linear trapezoidal model for non-compartmental analysis of plasma data after extravascular input. […] The beginning of the elimination phase was estimated around three hours after dosing. Ribociclib is administered as an instant release tablet dosage form, so no absorption lag was neither expected nor observed.
as §1

[6] = higher QC level (RIB 2500, ABE 1500, PAL 250, ANA 100, LET 250, FUL 500 ng/mL)
[7] = lower QC level (RIB 62.5, ABE 37.5, PAL 6.2, ANA 2.5, LET 6.25, FUL 12.5 ng/mL)

| Structure (SMILES) | Expected literature range Cmin–Cmax [1] | Stability Bias (%) 1 FT Cycle (30 min, −18–25 °C) [4, 6] | Stability Bias (%) 2 FT Cycles (30 min, −18–25 °C) [4, 6] | Stability Bias (%) 3 FT Cycles (30 min, −18–25 °C) [4, 6] | Stability Bias (%) Long-Term (2 Weeks, −18 °C) [4, 6] | Stability Bias (%) 1 FT Cycle (30 min, −18–25 °C) [4, 7] | Stability Bias (%) 2 FT Cycles (30 min, −18–25 °C) [4, 7] | Stability Bias (%) 3 FT Cycles (30 min, −18–25 °C) [4, 7] | Stability Bias (%) Long-Term (2 Weeks, −18 °C) [4, 7] | Stability Bias (%) Autosampler (10 h, 10 °C) [4, 6] | Stability Bias (%) Autosampler (10 h, 10 °C) [4, 7] | Stability Bias (%) Bench Top (2 h, 25 °C) [4, 6] | Stability Bias (%) Bench Top (2 h, 25 °C) [4, 7] | also measured |
| --- | --- | --- | --- | --- | --- | --- | --- | --- | --- | --- | --- | --- | --- | --- |
| CCN1CCN(Cc2ccc(Nc3ncc(F)c(-c4cc(F)c5nc(C)n(C(C)C)c5c4)n3)nc2)CC1 [ABE, abemaciclib] | 102.65–1381 [25] ng/mL | 9.37% | 5.68% | 1.13% | 3.09% | 13.23% | −7.43% | 14.07% | 7.60% | 14.88% | 11.51% | −0.10% | 9.09% | Minimal threshold concentration for efficacy [2]: 200 ng/mL; Plasma Concentration ([3]; patient 1, ABE 300 mg daily, continuous, before next dose): 425.79 ng/mL |
| CN(C)C(=O)c1cc2cnc(Nc3ccc(N4CCNCC4)cn3)nc2n1C1CCCC1 [RIB, ribociclib] | 711–3500 [24] ng/mL | 11.10% | −1.66% | −4.69% | −10.69% | 7.88% | 1.69% | 6.00% | 13.89% | −6.47% | 8.95% | 4.96% | 6.01% | concentration at 24 day ([3]; human, plasma, oral, patient 2, RIB 600 mg daily, sampling day 24 of cycle (off-treatment week)): 57.4 ng/mL; concentration at 16 day ([3]; human, plasma, oral, patient 3, RIB 600 mg daily, sampling day 16 (trough, steady state)): 682 ng/mL; concentration at 1 h ([3]; human, plasma, oral, patient 4, RIB 600 mg daily, sampling day 1, 1 h after dose administration): 1520 ng/mL; concentration at 12 day ([3]; human, plasma, oral, patient 5, RIB 600 mg daily, sampling day 12 (trough, steady state)): 1190 ng/mL; concentration at 28 day ([3]; human, plasma, oral, patient 6, RIB 600 mg daily, sampling day 28 (off-treatment week)): 27.2 ng/mL; concentration at 27 day ([3]; human, plasma, oral, patient 7, RIB 600 mg daily, sampling day 27 (off-treatment week)): 40.7 ng/mL; Elimination constant ([5]; non-compartmental analysis, PK solver): 0.022 h⁻¹; Cmax ([5]; human, first day of treatment cycle, plasma, read-out: Maximum concentration (Cmax)): 1830 ng/mL; half-life ([5]; human, plasma, non-compartmental analysis, PK solver, read-out: Elimination half-life (converted)): 31.6 h; concentration at 0 h ([5]; human, plasma, t 0.00 h, read-out: CRIB (ng/mL) plasma concentration): 945 ng/mL; concentration at 0.25 h ([5]; human, plasma, t 0.25 h, read-out: CRIB (ng/mL) plasma concentration): 1050 ng/mL; concentration at 0.5 h ([5]; human, plasma, t 0.50 h, read-out: CRIB (ng/mL) plasma concentration): 1240 ng/mL; concentration at 1 h ([5]; human, plasma, t 1.00 h, read-out: CRIB (ng/mL) plasma concentration): 1520 ng/mL; concentration at 3 h ([5]; human, plasma, t 3.00 h, read-out: CRIB (ng/mL) plasma concentration): 1830 ng/mL; concentration at 6 h ([5]; human, plasma, t 6.00 h, read-out: CRIB (ng/mL) plasma concentration): 1710 ng/mL; concentration at 12 h ([5]; human, plasma, t 12.00 h, read-out: CRIB (ng/mL) plasma concentration): 1500 ng/mL |

— publication PMC9147789, “Development and Validation of a Novel LC-MS/MS Method for the Simultaneous Determination of Abemaciclib, Palbociclib, Ribociclib, Anastrozole, Letrozole, and Fulvestrant in Plasma Samples: A Prerequisite for Personalized Breast Cancer Treatment” (Pharmaceuticals, 2022)
